Measured values from patent US20220142958A1, “MEDICINAL COMPOSITION HAVING EXCELLENT STABILITY” (EA Pharma Co., Ltd., priority 2019, published 2022).

Columns and labels:
[1] = Example 4B: residual ratio at 50, 60, 70° C. and Arrhenius estimation at 25° C.; assay type: physicochemical; details: for Kobs: estimation at 25° C. (Arrhenius plot); for Residual ratio (%) estimation: estimation at 25° C.
Procedure: According to Table 13, Compound A1 was dissolved at 2 concentrations in each of the buffer solutions having a pH at each of both ends of Example 4A. Each of these solutions was dispensed into a glass vial and stored at each of 50° C., 60° C., and 70° C. After the storage, a residual ratio was calculated according to a test method described below.
Test method: In the solution after the storage, the residual ratio was analyzed according to a normal method using a liquid chromatography apparatus Prominence (manufactured by Shimadzu Corporation) and an ultraviolet absorptiometer (measurement wavelength: 254 nm, Prominence (manufactured by Shimadzu Corporation)). At this time, SUMIPAX ODS (3 mm×150 mm, […], manufactured by SCAS) was used as a column.
The calculation for obtaining the residual ratio (%) of Compound A1 during each storage period is as follows.
Residual ratio (%) of Compound A1 during each storage period=peak area of Compound A1 in sample solution/peak area of Compound A1 in standard solution×100
Here, “Compound A1 in standard solution” refers to a solution obtained by dissolving Compound A1 in each of the buffer solutions shown in Table 13 so that a concentration was 0.1 mg/mL, and then storing the solution at 5° C. It was clear from the results of Example 1 that the solution of Compound A1 was stable when being stored at 5° C., and thus, the solution was used as the standard solution.
The reaction rate constant at each of the storing temperatures was calculated using the obtained residual ratio. The Arrhenius plot was performed to calculate the reaction rate constant (h^−1) at an arbitrary temperature. As an example, the residual ratio estimation at 25° C. is shown in Table 15 and described in FIG. 1.

[2] = Example 3: storage stability of formulations at 5° C., 15° C. and 25° C.; assay type: physicochemical
Procedure: Compound A1 weighed so as to have the composition shown in Table 7 below and each of the buffer solutions were dissolved in water for injection to obtain a uniform solution. These solutions were filled in glass ampoules and sealed. Each pH in Example 3 was measured during each storage period using a pH meter HM-30R (manufactured by DKK-TOA CORPORATION).
The residual ratio of Compound A1 and the production of each of the decomposition products at 5° C., 15° C., and 25° C. were evaluated according to a test method described below.
Test method: In the solution after the storage, the residual ratio was analyzed according to a normal method using a liquid chromatography apparatus (ACQUITY UPLC H-Class; measurement wavelength: 210 nm). At this time, XSELECT CSH C18 (2.1 mm×100 mm, 3.5 μm, manufactured by Waters Corporation) was used as a column.
Calculation for obtaining the residual ratio (%) of Compound A1 and each of the decomposition products (%) during each storage period is as follows.
Residual ratio (%) of Compound A1=peak area of Compound A1 in sample solution/sum of peak area of sample solution×100
Each of decomposition products (%)=peak area of each of decomposition products in sample solution/sum of peak area of sample solution×100

[3] = Non-clinical studies of excretion and elimination (normal rat); assay type: in vivo
[4] = test system: bilaterally nephrectomized rats; assay: Survival of bilaterally nephrectomized rats after single doses; assay type: in vivo, rat; details: 48 hours after the administration, all administered groups (0.3, 3, 30 mg/kg)
Source text: After quarantine and acclimatization periods of 6 days, fifty-one rats (Crl: CD (SD), male) aged 7 weeks were fed a 100% sucrose diet ad libitum from four days before the surgery. On the day of the surgery, skin incisions were made on the back at the sites of the right and left kidneys under isoflurane anesthesia and the renal capsules were removed to ligate the renal arteries and veins and the ureters using threads before removing the right and left kidneys. A penicillin solution was given upon suturing, and 5 mL of physiological saline was intraperitoneally administered before returning the rats into the breeding cages.
On a day after the bilaterally nephrectomy, the given doses were calculated based on the weight of the selected animals on that day. Group 1 was given a medium (physiological saline), Groups 2, 3 and 4 were given the Compound A1 solution (0.3, 3 and 30 mg/mL, respectively), and Groups 5, 6, 7 and 8 (5 rats per group) were given the comparative compound (0.3, 1, 3 and 10 mg/mL, respectively), each given a single dose of 1 ml/kg from the tail vein. Prior to the administration (0 hours), and 24 and 48 hours after the administration, approximately 300 μL of blood was collected without anesthesia from the tail vein using capillary tubes for obtaining the serum. The blood for obtaining the serum was left to stand at room temperature, and centrifuged in a high speed refrigerated microcentrifuge (10,000 rpm, 5 min, 4° C.) within a period of 30 minutes to 2 hours after the blood collection to collect the serum.

What does the source list for `Cc1c(Cl)cc(S(=O)(=O)[O-])cc1NC(=O)NC[C@H](N)C(=O)O.[Na+]` [Compound A1, sodium 3-{[(2S)-2-amino-2-carboxyethyl]carbamoylamino}-5-chloro-4-methylbenzenesulfonate]?
Kobs ([1]; pH 1.1, 0.1 mg/mL): 3.01e-06 h⁻¹; Kobs ([1]; pH 1.1, 10 mg/mL): 5.55e-06 h⁻¹; Kobs ([1]; pH 7.0, 0.1 mg/mL): 3.1e-06 h⁻¹; Kobs ([1]; pH 7.0, 10 mg/mL): 5.73e-06 h⁻¹; Residual ratio (%) estimation ([1]; pH 1.1, 0.1 mg/mL, 3M): 99.4%; Residual ratio (%) estimation ([1]; pH 1.1, 0.1 mg/mL, 6M): 98.7%; Residual ratio (%) estimation ([1]; pH 1.1, 0.1 mg/mL, 12M): 97.4%; Residual ratio (%) estimation ([1]; pH 1.1, 10 mg/mL, 3M): 98.8%; Residual ratio (%) estimation ([1]; pH 1.1, 10 mg/mL, 6M): 97.6%; Residual ratio (%) estimation ([1]; pH 1.1, 10 mg/mL, 12M): 95.3%; Residual ratio (%) estimation ([1]; pH 7.0, 0.1 mg/mL, 3M): 99.3%; Residual ratio (%) estimation ([1]; pH 7.0, 0.1 mg/mL, 6M): 98.7%; Residual ratio (%) estimation ([1]; pH 7.0, 0.1 mg/mL, 12M): 97.4%; Residual ratio (%) estimation ([1]; pH 7.0, 10 mg/mL, 3M): 98.8%; Residual ratio (%) estimation ([1]; pH 7.0, 10 mg/mL, 6M): 97.6%; Residual ratio (%) estimation ([1]; pH 7.0, 10 mg/mL, 12M): 95.2%; storage stability ([1]; formulation with pH of 1.1 and 7.0, 25° C., over 12 months (estimation)): excellent storage stability; Residual ratio (%) ([1]; pH 1.1, 0.1 mg/mL, 50° C., 23 hours): 98.9%; Residual ratio (%) ([1]; pH 1.1, 0.1 mg/mL, 50° C., 141 hours): 96.9%; Residual ratio (%) ([1]; pH 1.1, 0.1 mg/mL, 50° C., 570 hours): 92.3%; Residual ratio (%) ([1]; pH 1.1, 0.1 mg/mL, 60° C., 23 hours): 97.8%; Residual ratio (%) ([1]; pH 1.1, 0.1 mg/mL, 60° C., 141 hours): 92.0%; Residual ratio (%) ([1]; pH 1.1, 0.1 mg/mL, 60° C., 570 hours): 76.7%; Residual ratio (%) ([1]; pH 1.1, 0.1 mg/mL, 70° C., 23 hours): 94.5%; Residual ratio (%) ([1]; pH 1.1, 0.1 mg/mL, 70° C., 141 hours): 76.8%; Residual ratio (%) ([1]; pH 1.1, 0.1 mg/mL, 70° C., 570 hours): 35.5%; Residual ratio (%) ([1]; pH 1.1, 10 mg/mL, 50° C., 23 hours): 96.2%; Residual ratio (%) ([1]; pH 1.1, 10 mg/mL, 50° C., 141 hours): 96.4%; Residual ratio (%) ([1]; pH 1.1, 10 mg/mL, 50° C., 570 hours): 89.5%; Residual ratio (%) ([1]; pH 1.1, 10 mg/mL, 60° C., 23 hours): 96.4%; Residual ratio (%) ([1]; pH 1.1, 10 mg/mL, 60° C., 141 hours): 95.6%; Residual ratio (%) ([1]; pH 1.1, 10 mg/mL, 60° C., 570 hours): 73.4%; Residual ratio (%) ([1]; pH 1.1, 10 mg/mL, 70° C., 23 hours): 92.5%; Residual ratio (%) ([1]; pH 1.1, 10 mg/mL, 70° C., 141 hours): 84.2%; Residual ratio (%) ([1]; pH 1.1, 10 mg/mL, 70° C., 570 hours): 36.5%; Residual ratio (%) ([1]; pH 7.0, 0.1 mg/mL, 50° C., 23 hours): 99.6%; Residual ratio (%) ([1]; pH 7.0, 0.1 mg/mL, 50° C., 141 hours): 97.7%; Residual ratio (%) ([1]; pH 7.0, 0.1 mg/mL, 50° C., 570 hours): 90.9%; Residual ratio (%) ([1]; pH 7.0, 0.1 mg/mL, 60° C., 23 hours): 98.2%; Residual ratio (%) ([1]; pH 7.0, 0.1 mg/mL, 60° C., 141 hours): 89.2%; Residual ratio (%) ([1]; pH 7.0, 0.1 mg/mL, 60° C., 570 hours): 63.9%; Residual ratio (%) ([1]; pH 7.0, 0.1 mg/mL, 70° C., 23 hours): 93.8%; Residual ratio (%) ([1]; pH 7.0, 0.1 mg/mL, 70° C., 141 hours): 68.0%; Residual ratio (%) ([1]; pH 7.0, 0.1 mg/mL, 70° C., 570 hours): 21.1%; Residual ratio (%) ([1]; pH 7.0, 10 mg/mL, 50° C., 23 hours): 100.0%; Residual ratio (%) ([1]; pH 7.0, 10 mg/mL, 50° C., 141 hours): 98.0%; Residual ratio (%) ([1]; pH 7.0, 10 mg/mL, 50° C., 570 hours): 89.0%; Residual ratio (%) ([1]; pH 7.0, 10 mg/mL, 60° C., 23 hours): 97.2%; Residual ratio (%) ([1]; pH 7.0, 10 mg/mL, 60° C., 141 hours): 86.3%; Residual ratio (%) ([1]; pH 7.0, 10 mg/mL, 60° C., 570 hours): 61.0%; Residual ratio (%) ([1]; pH 7.0, 10 mg/mL, 70° C., 23 hours): 91.7%; Residual ratio (%) ([1]; pH 7.0, 10 mg/mL, 70° C., 141 hours): 64.4%; Residual ratio (%) ([1]; pH 7.0, 10 mg/mL, 70° C., 570 hours): 22.2%; storage stability ([2]; formulations in the pH range of 6.4 to 6.9, 5° C., for 30 months): excellent storage stability; storage stability ([2]; formulations in the pH range of 6.4 to 6.9, 15° C., for 12 months): excellent storage stability; storage stability ([2]; formulations in the pH range of 6.4 to 6.9, 25° C. (60% RH), for 6 months): excellent storage stability; elimination from the plasma ([3]; intravenously administered to a normal rat): rapidly eliminated; main route of excretion ([3]; non-clinical studies): renal excretion; number of rats surviving (of five per group) [4]: five
